Test results: patent US20250145609A1, “3-SUBSTITUTED PYRIDAZINE COMPOUNDS AS SMARCA2 AND/OR SMARCA4 DEGRADERS” (Aurigene Oncology Limited, priority 2022, published 2025)

Legend:
Format in all cases: cell-based
[1] = tested on: VCaP cells; experiment: Anti proliferative activity in VCaP cell line by CellTiter Glo assay; conditions: Homo sapiens, VCaP, 192 h, 8 days incubation, CellTiter Glo luminescence
Description: Example-P1: Determination of Anti Proliferative Activity of Compounds in Cell Lines VCaP by Cell Titer Glo©(Promega) Assay
VCaP (ATCC CRL-2876) cells were seeded in 96 well plate flat black clear bottom plates (Corning, Cat. No 3904) using complete DMEM Medium. Next day, compounds listed in the present invention were added to cells from 10 mM stocks made in DMSO (Sigma Cat no. D2650). Each concentration of compound was tested in triplicate with DMSO concentration at a final percentage not exceeding 0.3 in the cells. After the incubation of VCaP cells with compound for 8 days assay was terminated using 50 μl of CellTiter Glo© reagent (Promega, Cat. no G7572). CellTiter-Glo® Luminescent reagent determines the number of viable cells based on quantitation of ATP present which is an indicator of cell number and metabolic activity. Luminescence readings were taken in Victor-3 instrument. Percent inhibition of proliferation was calculated using formula, % inhibition=100−(luminescence value of test/luminescence value of DMSO control)*100. DMSO control (0%)=Cells in complete media with DMSO; blank=Media alone containing DMSO. EC50 was calculated using graph pad prism software.
Herein the group “A” refers to EC50 values lower than l0 nM, group “B” refers to EC50 values between l0 nM-100 nM (both inclusive) and group “C” refers to EC50 values greater than 100 nM.

[2] = molecular target: T1, SMARCA4 (Homo sapiens, UniProt P51532); experiment: SMARCA4 degradation in VCaP cells by Western blot; conditions: at 100 nM; for Percent SMARCA4 degradation at 0.1 µM: VCaP, 16 h
T1 construct: endogenous in cells; host or cells: VCaP (ATCC CRL-2876)
Description: (§1) Example-P2: Determination of SMARCA2 and SMARCA4 Degradation in VCaP Cells by Western Blot
(§2) VCaP (ATCC CRL-2876) was plated in 6 well plates using complete Dulbecco's Modified Eagle's Medium. On the third day, compounds of present invention were added to cells from 10 mM stocks made in DMSO (Sigma Cat no. D2650). Each compound was tested at 100 nM concentration with DMSO not exceeding final percentage of 0.3 in the cells. Cells were incubated with the compound for 16 hours followed by harvesting with 1×RIPA lysis buffer (Thermo Fischer, catalogue number #89900) containing protease inhibitor cocktail (Sigma catalogue number #P-8340). Equal amount of protein was loaded on SDS PAGE gel for electrophoresis. Western blot was carried out for detection of either SMARCA2 (Cell signalling technologies, catalogue number #11966) or SMARCA4 antibody (Cell signalling technologies, catalogue number #52251). Beta-Tubulin antibody (Cell signalling technologies, catalogue number #86298) was used as loading control. Percentage of SMARCA2 or SMARCA4 degradation was calculated by using formula: […]

[3] = molecular target: T2, SMARCA2 (Homo sapiens, UniProt P51531); experiment: SMARCA2 degradation in VCaP cells by Western blot; conditions: at 100 nM, 16 hours
T2 construct: endogenous in cells; host or cells: VCaP (ATCC CRL-2876)
Description: as §1, §2

T1 sequence (P51532 whole entry): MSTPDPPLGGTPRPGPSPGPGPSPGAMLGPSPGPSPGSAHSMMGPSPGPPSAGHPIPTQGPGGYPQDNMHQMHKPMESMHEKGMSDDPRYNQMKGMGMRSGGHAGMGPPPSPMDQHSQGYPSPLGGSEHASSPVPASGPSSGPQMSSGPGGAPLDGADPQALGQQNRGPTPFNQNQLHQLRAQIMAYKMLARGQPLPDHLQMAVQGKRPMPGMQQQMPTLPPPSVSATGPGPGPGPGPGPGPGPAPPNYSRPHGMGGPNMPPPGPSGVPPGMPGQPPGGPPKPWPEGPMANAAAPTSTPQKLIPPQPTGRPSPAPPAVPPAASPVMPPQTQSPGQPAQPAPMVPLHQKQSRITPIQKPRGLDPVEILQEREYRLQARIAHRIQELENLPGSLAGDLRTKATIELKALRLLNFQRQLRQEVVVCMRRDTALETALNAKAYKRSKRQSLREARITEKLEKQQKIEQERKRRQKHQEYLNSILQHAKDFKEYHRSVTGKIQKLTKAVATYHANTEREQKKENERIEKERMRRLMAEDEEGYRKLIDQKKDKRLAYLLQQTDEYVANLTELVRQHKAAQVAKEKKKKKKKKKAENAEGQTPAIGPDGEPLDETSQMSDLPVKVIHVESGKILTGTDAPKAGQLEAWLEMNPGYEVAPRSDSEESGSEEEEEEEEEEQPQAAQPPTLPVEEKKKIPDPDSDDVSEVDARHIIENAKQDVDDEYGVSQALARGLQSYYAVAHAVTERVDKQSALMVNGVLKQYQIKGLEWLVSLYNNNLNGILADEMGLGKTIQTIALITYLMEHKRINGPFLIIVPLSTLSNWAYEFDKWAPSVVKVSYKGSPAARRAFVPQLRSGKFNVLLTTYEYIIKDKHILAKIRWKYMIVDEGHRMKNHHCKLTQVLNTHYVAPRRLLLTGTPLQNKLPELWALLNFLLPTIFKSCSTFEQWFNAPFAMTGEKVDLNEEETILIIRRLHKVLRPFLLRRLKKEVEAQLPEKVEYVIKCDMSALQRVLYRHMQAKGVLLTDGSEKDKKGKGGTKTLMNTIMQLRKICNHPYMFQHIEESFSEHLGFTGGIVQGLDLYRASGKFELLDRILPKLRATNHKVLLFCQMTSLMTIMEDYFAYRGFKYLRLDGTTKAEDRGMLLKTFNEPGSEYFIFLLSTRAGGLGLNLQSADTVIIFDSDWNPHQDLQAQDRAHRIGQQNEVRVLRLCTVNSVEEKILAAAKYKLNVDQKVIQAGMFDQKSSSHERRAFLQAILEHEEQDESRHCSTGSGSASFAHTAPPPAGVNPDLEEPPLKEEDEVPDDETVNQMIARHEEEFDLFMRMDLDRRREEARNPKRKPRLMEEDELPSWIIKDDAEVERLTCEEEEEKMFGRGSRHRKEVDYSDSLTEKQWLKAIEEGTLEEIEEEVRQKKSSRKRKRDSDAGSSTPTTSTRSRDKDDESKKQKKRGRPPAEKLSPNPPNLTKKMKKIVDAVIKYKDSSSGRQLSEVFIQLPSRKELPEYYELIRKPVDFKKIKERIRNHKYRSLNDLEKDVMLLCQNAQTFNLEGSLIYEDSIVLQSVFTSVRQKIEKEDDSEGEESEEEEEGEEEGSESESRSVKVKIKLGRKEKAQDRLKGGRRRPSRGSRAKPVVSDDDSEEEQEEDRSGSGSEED
T2 sequence (P51531 whole entry): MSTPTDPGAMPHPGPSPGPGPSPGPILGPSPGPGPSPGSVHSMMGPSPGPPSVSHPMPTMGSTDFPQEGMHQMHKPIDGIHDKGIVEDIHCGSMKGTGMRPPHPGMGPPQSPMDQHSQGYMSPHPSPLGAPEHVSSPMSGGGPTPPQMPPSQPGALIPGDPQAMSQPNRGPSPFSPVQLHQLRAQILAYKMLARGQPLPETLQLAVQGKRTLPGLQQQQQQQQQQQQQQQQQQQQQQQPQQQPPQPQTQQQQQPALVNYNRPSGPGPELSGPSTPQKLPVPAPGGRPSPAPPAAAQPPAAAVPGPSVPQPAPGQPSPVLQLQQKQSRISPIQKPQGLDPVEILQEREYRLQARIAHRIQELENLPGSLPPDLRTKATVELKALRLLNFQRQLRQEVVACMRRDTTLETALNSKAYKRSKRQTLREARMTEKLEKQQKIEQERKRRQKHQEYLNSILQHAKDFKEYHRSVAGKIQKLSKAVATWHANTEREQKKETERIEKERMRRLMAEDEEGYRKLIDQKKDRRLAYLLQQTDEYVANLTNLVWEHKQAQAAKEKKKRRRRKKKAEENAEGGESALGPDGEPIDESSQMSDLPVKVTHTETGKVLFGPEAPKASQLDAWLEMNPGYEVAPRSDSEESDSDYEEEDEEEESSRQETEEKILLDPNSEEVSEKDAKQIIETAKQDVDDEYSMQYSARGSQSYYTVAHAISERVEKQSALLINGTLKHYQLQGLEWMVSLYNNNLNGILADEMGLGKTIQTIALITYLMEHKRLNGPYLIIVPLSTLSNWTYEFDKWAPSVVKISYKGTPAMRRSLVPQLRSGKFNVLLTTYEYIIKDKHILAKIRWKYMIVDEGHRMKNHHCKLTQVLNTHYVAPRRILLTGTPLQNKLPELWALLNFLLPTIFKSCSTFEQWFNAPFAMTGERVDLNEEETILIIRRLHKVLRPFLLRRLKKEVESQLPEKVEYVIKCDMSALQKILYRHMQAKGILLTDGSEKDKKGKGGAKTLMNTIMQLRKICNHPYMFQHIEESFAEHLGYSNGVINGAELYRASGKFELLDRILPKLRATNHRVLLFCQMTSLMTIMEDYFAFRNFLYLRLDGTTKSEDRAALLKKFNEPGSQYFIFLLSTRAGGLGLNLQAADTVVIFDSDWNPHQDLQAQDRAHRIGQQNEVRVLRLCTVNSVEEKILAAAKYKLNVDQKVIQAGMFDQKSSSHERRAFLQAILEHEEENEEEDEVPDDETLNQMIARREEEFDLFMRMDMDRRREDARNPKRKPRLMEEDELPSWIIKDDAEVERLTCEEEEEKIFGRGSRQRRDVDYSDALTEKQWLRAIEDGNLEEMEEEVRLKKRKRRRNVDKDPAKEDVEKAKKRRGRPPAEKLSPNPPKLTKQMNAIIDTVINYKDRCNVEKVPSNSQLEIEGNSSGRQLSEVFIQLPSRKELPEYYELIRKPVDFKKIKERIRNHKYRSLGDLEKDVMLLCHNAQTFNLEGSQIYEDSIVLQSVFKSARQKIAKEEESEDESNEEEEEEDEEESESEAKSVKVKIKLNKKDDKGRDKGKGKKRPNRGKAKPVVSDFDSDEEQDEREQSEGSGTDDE

EC50 [1]	Percent SMARCA4 degradation at 0.1 µM [2]	Percent degradation SMARCA2 [3]	Percent degradation SMARCA4 ([2]; 16 hours)	Structure (SMILES)
0.01 to 0.1 µM	24%	95%	–	Cc1ncsc1-c1ccc([C@H](C)NC(=O)[C@@H]2C[C@@H](O)CN2C(=O)[C@@H](NC(=O)CN2CCC(c3ccc(-c4cc(-c5ccccc5O)nnc4N)cc3)C2)C(C)(C)C)cc1 (stereo partly drawn) [Compound 51, (2S,4R)-1-((2S)-2-(2-(3-(4-(3-amino-6-(2-hydroxyphenyl)pyridazin-4-yl)phenyl)pyrrolidin-1-yl)acetamido)-3,3-dimethylbutanoyl)-4-hydroxy-N-((S)-1-(4-(4-methylthiazol-5-yl)phenyl)ethyl)pyrrolidine-2-carboxamide]
> 0.1 µM	0%	78%	–	Cc1ncsc1-c1ccc([C@H](C)NC(=O)[C@@H]2C[C@@H](O)CN2C(=O)[C@@H](NC(=O)CN2CCN(c3ccc(-c4cc(-c5ccccc5O)nnc4N)cc3)C(=O)C2)C(C)(C)C)cc1 [Compound 39, (2S,4R)-1-((S)-2-(2-(4-(4-(3-amino-6-(2-hydroxyphenyl)pyridazin-4-yl)phenyl)-3-oxopiperazin-1-yl)acetamido)-3,3-dimethylbutanoyl)-4-hydroxy-N-((S)-1-(4-(4-methylthiazol-5-yl)phenyl)ethyl)pyrrolidine-2-carboxamide]
< 0.01 µM	89%	98%	–	Cc1ncsc1-c1ccc([C@H](C)NC(=O)[C@@H]2C[C@@H](O)CN2C(=O)[C@@H](NC(=O)CN2CCC(Oc3ccc(-c4cc(-c5ccccc5O)nnc4N)cc3)CC2)C(C)(C)C)cc1 [Compound 53, (2S,4R)-1-((S)-2-(2-(4-(4-(3-amino-6-(2-hydroxyphenyl)pyridazin-4-yl)phenoxy)piperidin-1-yl)acetamido)-3,3-dimethylbutanoyl)-4-hydroxy-N-((S)-1-(4-(4-methylthiazol-5-yl)phenyl)ethyl)pyrrolidine-2-carboxamide]
> 0.1 µM	0%	90%	–	Cc1ncsc1-c1ccc([C@H](C)NC(=O)[C@@H]2C[C@@H](O)CN2C(=O)[C@@H](NC(=O)C(C)N2CCC(c3ccc(-c4cc(-c5ccccc5O)nnc4N)cc3)CC2)C(C)(C)C)cc1 (mixture of isomers) [Compound 32, (2S,4R)-1-((2S)-2-(2-(4-(4-(3-amino-6-(2-hydroxyphenyl)pyridazin-4-yl)phenyl)piperidin-1-yl)propanamido)-3,3-dimethylbutanoyl)-4-hydroxy-N-((S)-1-(4-(4-methylthiazol-5-yl)phenyl)ethyl)pyrrolidine-2-carboxamide]
< 0.01 µM	89%	98%	–	Cc1ncsc1-c1ccc([C@H](C)NC(=O)[C@@H]2C[C@@H](O)CN2C(=O)[C@@H](NC(=O)CC2CCC(c3ccc(-c4cc(-c5ccccc5O)nnc4N)cc3)CC2)C(C)(C)C)cc1 (single isomer, unassigned) [Compound 44]
0.01 to 0.1 µM	63%	92%	–	Cc1ncsc1-c1ccc(CNC(=O)[C@@H]2C[C@@H](O)CN2C(=O)[C@@H](NC(=O)CN2CCC(c3ccc(-c4cc(-c5ccccc5O)nnc4N)cc3)CC2)C(C)(C)C)cc1 [Compound 30, (2S,4R)-1-((S)-2-(2-(4-(4-(3-amino-6-(2-hydroxyphenyl)pyridazin-4-yl)phenyl)piperidin-1-yl)acetamido)-3,3-dimethylbutanoyl)-4-hydroxy-N-(4-(4-methylthiazol-5-yl)benzyl)pyrrolidine-2-carboxamide]
> 0.1 µM	71%	97%	–	Cc1ncsc1-c1ccc([C@H](C)NC(=O)[C@@H]2C[C@@H](O)CN2C(=O)[C@@H](NC(=O)CC#Cc2ccc(-c3cc(-c4ccccc4O)nnc3N)cc2)C(C)(C)C)cc1 [Compound 21, (2S,4R)-1-((S)-2-(4-(4-(3-amino-6-(2-hydroxyphenyl)pyridazin-4-yl)phenyl)but-3-ynamido)-3,3-dimethylbutanoyl)-4-hydroxy-N-((S)-1-(4-(4-methylthiazol-5-yl)phenyl)ethyl)pyrrolidine-2-carboxamide]
< 0.01 µM	86%	97%	–	Cc1ncsc1-c1ccc([C@H](C)NC(=O)[C@@H]2C[C@@H](O)CN2C(=O)[C@@H](NC(=O)CC2CCC(c3ccc(-c4cc(-c5ccccc5O)nnc4N)cc3)CC2)C(C)(C)C)cc1 (mixture of isomers) [Compound 43, (2S,4R)-1-((S)-2-(2-(4-(4-(3-amino-6-(2-hydroxyphenyl)pyridazin-4-yl)phenyl)cyclohexyl)acetamido)-3,3-dimethylbutanoyl)-4-hydroxy-N-((S)-1-(4-(4-methylthiazol-5-yl)phenyl)ethyl)pyrrolidine-2-carboxamide]
< 0.01 µM	95%	95%	–	Cc1ncsc1-c1ccc([C@H](C)NC(=O)[C@@H]2C[C@@H](O)CN2C(=O)[C@@H](NC(=O)CN2CCC(c3ccc(-c4cc(-c5ccccc5O)nnc4N)cc3)CC2)C(C)(C)C)cc1 [Compound 29, (2S,4R)-1-((S)-2-(2-(4-(4-(3-amino-6-(2-hydroxyphenyl)pyridazin-4-yl)phenyl)piperidin-1-yl)acetamido)-3,3-dimethylbutanoyl)-4-hydroxy-N—((S)-1-(4-(4-methylthiazol-5-yl)phenyl)ethyl)pyrrolidine-2-carboxamide]
> 0.1 µM	–	91%	0%	Cc1ncsc1-c1ccc([C@H](C)NC(=O)[C@@H]2C[C@@H](O)CN2C(=O)[C@@H](NC(=O)C(C)N2CCC(c3ccc(-c4cc(-c5ccccc5O)nnc4N)cc3)CC2)C(C)(C)C)cc1 (single isomer, unassigned) [Compound 34]
< 0.01 µM	45%	97%	–	Cc1ncsc1-c1ccc([C@H](C)NC(=O)[C@@H]2C[C@@H](O)CN2C(=O)[C@@H](NC(=O)C2CCC(c3ccc(-c4cc(-c5ccccc5O)nnc4N)cc3)CC2)C(C)(C)C)cc1 (mixture of isomers) [Compound 40, (2S,4R)-1-((S)-2-(4-(4-(3-amino-6-(2-hydroxyphenyl)pyridazin-4-yl)phenyl)cyclohexane-1-carboxamido)-3,3-dimethylbutanoyl)-4-hydroxy-N-((S)-1-(4-(4-methylthiazol-5-yl)phenyl)ethyl)pyrrolidine-2-carboxamide]
0.01 to 0.1 µM	90%	99%	–	Cc1ncsc1-c1ccc([C@H](C)NC(=O)[C@@H]2C[C@@H](O)CN2C(=O)[C@@H](NC(=O)CCCCOc2ccc(-c3cc(-c4ccccc4O)nnc3N)cc2)C(C)(C)C)cc1 [Compound 58, (2S,4R)-1-((S)-2-(5-(4-(3-amino-6-(2-hydroxyphenyl)pyridazin-4-yl)phenoxy)pentanamido)-3,3-dimethylbutanoyl)-4-hydroxy-N—((S)-1-(4-(4-methylthiazol-5-yl)phenyl)ethyl)pyrrolidine-2-carboxamide]
< 0.01 µM	96%	96%	–	Cc1ncsc1-c1ccc([C@H](C)NC(=O)[C@@H]2C[C@@H](O)CN2C(=O)[C@@H](NC(=O)CCCC#Cc2ccc(-c3cc(-c4ccccc4O)nnc3N)cc2)C(C)(C)C)cc1 [Compound 19, (2S,4R)-1-((S)-2-(6-(4-(3-amino-6-(2-hydroxyphenyl)pyridazin-4-yl)phenyl)hex-5-ynamido)-3,3-dimethylbutanoyl)-4-hydroxy-N—((S)-1-(4-(4-methylthiazol-5-yl)phenyl)ethyl)pyrrolidine-2-carboxamide]
< 0.01 µM	88%	97%	–	Cc1ncsc1-c1ccc([C@H](C)NC(=O)[C@@H]2C[C@@H](O)CN2C(=O)[C@@H](NC(=O)CN2CCC(c3ccc(-c4cc(-c5ccccc5O)nnc4N)cc3)CC2C)C(C)(C)C)cc1 (mixture of isomers) [Compound 35, (2S,4R)-1-((2S)-2-(2-(4-(4-(3-amino-6-(2-hydroxyphenyl)pyridazin-4-yl)phenyl)-2-methylpiperidin-1-yl)acetamido)-3,3-dimethylbutanoyl)-4-hydroxy-N-((S)-1-(4-(4-methylthiazol-5-yl)phenyl)ethyl)pyrrolidine-2-carboxamide]
